Reference: patent US20050136444A1 (priority 2003, published 2005)
Where a name gives a salt, the structure may show the parent alone.

Columns and labels:
[1] = biological target: NPFF1 (Homo sapiens, UniProt Q9GZQ6); assay: Receptor Selection and Amplification Technology (R-SAT) functional assay, NPFF1; format: cell-based; parameters: expressed in transfected cells; host or cells: NIH3T3; details: R-SAT, Table 1; for Emax: Efficacy is relative to endogenous ligand, read-out: NPFF1 % Efficacy; for EC50: NA = No activity detectable at the highest dose tested (20 μM), read-out: NPFF1 pEC50 (converted)
Experimental: (§1) Briefly, NIH3T3 cells were grown in 96 well tissue culture plates to 70-80% confluence. Cells were transfected for 16-20 h h with plasmid DNAs using Polyfect (Qiagen Inc.) as per manufacturer's protocols. R-SAT's were generally performed with 40 ng/well of receptor and 20 ng/well of β-galactosidase plasmid DNA. All receptor and G-protein constructs used were in the pSI-derived mammalian expression vector (Promega Inc) as described previously. […] For large-scale transfections, cells were transfected for 16-20 h, then trypsinized and frozen in DMSO. Frozen cells were later thawed, plated at ˜20,000 cells per well of a 96 half-area well plate that contained drug. With both methods, cells were then grown in a humidified atmosphere with 5% ambient CO2 for five days. Media was then removed from the plates and marker gene activity was measured by the addition of the β-galactosidase substrate o-nitrophenyl β-D-galactopyranoside (ONPG, in PBS with 0.5% NP-40). The resulting colorimetric reaction was measured in a spectrophotometric plate reader (Titertek Inc.) at 420 nm. All data were analyzed using the computer program XLFit (IDBSm).
(§2) R-SAT assay was conducted as set forth in […]

[2] = biological target: T1, NPFF2 (Homo sapiens, UniProt Q9Y5X5); assay: Receptor Selection and Amplification Technology (R-SAT) functional assay, NPFF2; format: cell-based; details: R-SAT, Table 1; for Emax: Efficacy is relative to endogenous ligand, read-out: NPFF2 % Efficacy; for EC50: NA = No activity detectable at the highest dose tested (20 μM), read-out: NPFF2 pEC50 (converted)
T1 construct: expressed in transfected cells; host or cells: NIH3T3
Experimental: as §1, §2

T1 sequence (Q9Y5X5 103-522): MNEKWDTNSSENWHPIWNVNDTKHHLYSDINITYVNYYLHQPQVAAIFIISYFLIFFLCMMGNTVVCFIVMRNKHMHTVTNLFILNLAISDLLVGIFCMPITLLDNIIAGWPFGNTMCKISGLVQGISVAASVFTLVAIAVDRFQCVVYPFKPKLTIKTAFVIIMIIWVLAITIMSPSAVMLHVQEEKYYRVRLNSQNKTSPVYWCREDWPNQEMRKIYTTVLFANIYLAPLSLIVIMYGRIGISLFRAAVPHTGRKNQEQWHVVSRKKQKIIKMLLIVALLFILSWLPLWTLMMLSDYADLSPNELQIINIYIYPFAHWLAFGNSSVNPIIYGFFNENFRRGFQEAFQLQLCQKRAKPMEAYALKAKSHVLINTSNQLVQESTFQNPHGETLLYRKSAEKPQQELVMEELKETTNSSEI
NPFF1, sequence (Q9GZQ6 whole entry, species assumed): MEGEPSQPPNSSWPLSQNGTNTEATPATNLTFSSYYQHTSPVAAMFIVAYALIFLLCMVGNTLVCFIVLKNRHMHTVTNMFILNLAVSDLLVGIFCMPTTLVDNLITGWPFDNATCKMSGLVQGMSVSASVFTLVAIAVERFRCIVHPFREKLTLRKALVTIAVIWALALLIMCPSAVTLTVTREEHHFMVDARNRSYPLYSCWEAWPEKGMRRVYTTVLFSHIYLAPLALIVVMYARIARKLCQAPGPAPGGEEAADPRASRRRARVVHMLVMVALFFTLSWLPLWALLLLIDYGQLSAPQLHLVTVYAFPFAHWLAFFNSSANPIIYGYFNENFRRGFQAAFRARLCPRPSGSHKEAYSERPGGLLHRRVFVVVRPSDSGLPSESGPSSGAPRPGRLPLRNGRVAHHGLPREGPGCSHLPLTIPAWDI

SMILES	Emax [1]	EC50 [1]	Emax [2]	EC50 [2]
CN(CCO)c1ccc(C=NNC(=N)N)cc1 [Compound 3041, 1-{4-[Methyl-(2-hydroxyethyl)amino]benzylideneamino}guanidine Hydrochloride]	30%	10 µM	53%	10 µM
CCOc1ccc(C=NNC(=N)N)cc1 [Compound 4005, 1-(4-Ethoxybenzylideneamino)guanidine Hydrochloride]	89%	10 µM	49%	5.01 µM
CCN(CC)c1ccc(C=NNC(=N)N)cc1 [Compound 3038, 1-(4-Diethylaminobenzylideneamino)guanidine Hydrochloride]	72%	1 µM	65%	1.26 µM
Cc1cc(C=NNC(=N)N)ccc1F [Compound 2012, 1-(4-Fluoro-3-methylbenzylideneamino)guanidine Hydrochloride]	9%		56%	1.58 µM
CCCCC(=NNC(=N)N)c1ccc(N(C)C)cc1 (mixture of isomers) [Compound 3035, 1-[1-(4-Dimethylaminophenyl)pentylideneamino]guanidine]	81%	3.16 µM	69%	2 µM
COc1cc(Cl)cc(C=NNC(=N)N)c1OC [Compound 2059, 1-(5-Chloro-2,3-dimethoxybenzylideneamino)guanidine Hydrochloride]	31%	10 µM	79%	5.01 µM
CCN(CC)c1ccc(C=NNC(=N)N)c(O)c1 [Compound 3037, 1-(4-Diethylamino-2-hydroxybenzylideneamino)guanidine Hydrochloride]	39%	0.794 µM	59%	3.16 µM
CCOc1ccc(C=NNC(=N)N)cc1OCC [Compound 2026, 1-(3,4-Diethoxybenzylideneamino)guanidine]	9%		58%	7.94 µM
N=C(N)NN=Cc1ccc2ccccc2c1 [Compound 2075, 1-[Naphthalen-2-yl-methylideneamino]guanidine Hydrochloride]	24%	1.26 µM	65%	2.51 µM
N=C(N)NN=Cc1ccc2c(c1)OCCCO2 [Compound 2038, 1-[3,4-Dihydro-2H-benzo[b][1,4]dioxepin-7-yl)methylideneamino]guanidine Hydrochloride]	9%		77%	3.98 µM
N=C(N)NN=Cc1ccc(Br)cc1F [Compound 2018, 1-(4-Bromo-2-fluorobenzylideneamino)guanidine Hydrochloride]	13%		53%	3.16 µM
N=C(N)NN=Cc1ccc(F)c(Cl)c1 [Compound 2013, 1-(3-Chloro-4-fluorobenzylideneamino)guanidine Hydrochloride]	4%		34%	0.794 µM
COc1ccc(OC)c(C=NNC(=N)N)c1 [Compound 3005, 1-(2,5-Dimethoxybenzylideneamino)guanidine Hydrochloride]	3%		59%	7.94 µM
CC(=NNC(=N)N)c1cccc(C(F)(F)F)c1 [Compound 3027, 1-{1-[3-(Trifluoromethyl)phenyl]ethylideneamino}guanidine Hydrochloride]	5%		63%	1.26 µM
CCCCCc1ccc(C=NNC(=N)N)cc1 [Compound 3022, 1-(4-n-pentylbenzylideneamino)guanidine Hydrochloride]	13%		55%	1.26 µM
CCc1ccc(C(C)=NNC(=N)N)cc1 [Compound 3020, 1-[1-(4-Ethylphenyl)ethylideneamino]guanidine Hydrochloride]	41%	3.98 µM	115%	1.26 µM
CN(CCC#N)c1ccc(C=NNC(=N)N)cc1 [Compound 3040, 1-{4-[Methyl-(2-cyanoethyl)amino]benzylideneamino}guanidine Hydrochloride]	48%	1.58 µM	70%	2 µM
CCN(CCO)c1ccc(C=NNC(=N)N)c(C)c1 [Compound 3036, 1-{4-[Ethyl-(2-hydroxyethyl)amino]-2-methylbenzylideneamino}guanidine Hydrochloride]	84%	1.26 µM	82%	0.631 µM

SMILES	Emax [1]	EC50 [1]	Emax [2]	EC50 [2]
COc1ccc(C=NNC(=N)N)cc1Br [Compound 2014, 1-(3-Bromo-4-methoxybenzylideneamino)guanidine Hydrochloride]	8%		35%	2 µM
CCN(CC)c1ccc(C=NNC(=N)N)c(OC)c1 [Compound 3043, 1-(2-Methoxy-4-N,N-diethylaminobenzylideneamino)guanidine Hydrochloride]	60%	1 µM	92%	1 µM
CC(=NNC(=N)N)c1ccc2c(c1)OCO2 [Compound 3032, 1-[1-(Benzo[1,3]dioxol-5-yl)ethylideneamino]guanidine Hydrochloride]	36%	12.6 µM	78%	3.98 µM
CCCOc1ccc(C=NNC(=N)N)cc1 [Compound 4006, 1-(4-n-Propoxybenzylideneamino)guanidine Hydrochloride]	78%	3.98 µM	53%	2 µM
COc1ccc(C=NNC(=N)N)c(C)c1C [Compound 2034, 1-(4-Methoxy-2,3-dimethylbenzylideneamino)guanidine Hydrochloride]	26%	3.98 µM	105%	2.51 µM
COc1cc(C=NNC(=N)N)cc(OC)c1 [Compound 2007, 1-(3,5-Dimethoxybenzylideneamino)guanidine Hydrochloride]	5%		29%	3.16 µM
N=C(N)NN=Cc1cccc(C(F)(F)F)c1F [Compound 2065, 1-[2-Fluoro-3-(trifluoromethyl)benzylideneamino]guanidine Hydrochloride]	9%		45%	3.16 µM
N=C(N)NN=Cc1ccc(C(F)(F)F)cc1F [Compound 2060, 1-[2-Fluoro-4-(trifluoromethyl)benzylideneamino]guanidine Hydrochloride]	26%	3.98 µM	48%	3.98 µM
COc1ccc(C=NNC(=N)N)cc1F [Compound 2009, 1-(3-Fluoro-4-methoxybenzylideneamino)guanidine Hydrochloride]	9%		54%	7.94 µM
COc1ccc(C=NNC(=N)N)c(OC)c1 [Compound 4003, 1-(2,4-Dimethoxybenzylideneamino)guanidine Hydrochloride]	41%	12.6 µM	41%	6.31 µM
CCCCCCc1ccc(C(C)=NNC(=N)N)cc1 [Compound 3023, Hydrochloride]	29%	0.501 µM	22%	1.26 µM
N=C(N)NN=Cc1cc(C(F)(F)F)ccc1Cl [Compound 2069, 1-[2-Chloro-5-(trifluoromethyl)benzylideneamino]guanidine Hydrochloride]	8%		40%	3.16 µM
COc1ccc2ccccc2c1C=NNC(=N)N [Compound 3007, 1-[1-(2-Methoxy-naphthalen-1-yl)methylideneamino]guanidine Hydrochloride]	24%	7.94 µM	84%	6.31 µM
CCOCCOc1ccc(/C=N/NC(=N)N)cc1Cl [Compound 2054, 1-[3-Chloro-4-(2-ethoxy-ethoxy)benzylideneamino])guanidine Acetate]	21%		96%	10 µM
N=C(N)NN=Cc1cc2c(cc1Br)OCO2 [Compound 3015, 1-[(6-Bromobenzo[1,3]dioxol-5-yl)methylideneamino]guanidine Hydrochloride]	26%	1 µM	70%	1.26 µM
COc1ccc(C=NNC(=N)N)cc1C(F)(F)F [Compound 2073, 1-[4-Methoxy-3-(trifluoromethyl)benzylideneamino]guanidine Hydrochloride]	13%		51%	1.58 µM
COc1ccc(C(C)=NNC(=N)N)c(O)c1 (mixture of isomers) [Compound 3030, 1-[1-(2-Hydroxy-4-methoxyphenyl)ethylideneamino]guanidine Hydrochloride]	7%		22%	6.31 µM
